Test results from publication PMC11269945, “HTRF-based assay for detection of mono-ADP-ribosyl hydrolyzing macrodomains and inhibitor screening” (iScience, 2024).
Counter-ions that a name gives are not always drawn. Like-named read-outs stand apart in the source and are kept apart here.

T1: PARP14 Mac2/3 (Homo sapiens, UniProt Q460N5)
T1 sequence (Q460N5 994-1393): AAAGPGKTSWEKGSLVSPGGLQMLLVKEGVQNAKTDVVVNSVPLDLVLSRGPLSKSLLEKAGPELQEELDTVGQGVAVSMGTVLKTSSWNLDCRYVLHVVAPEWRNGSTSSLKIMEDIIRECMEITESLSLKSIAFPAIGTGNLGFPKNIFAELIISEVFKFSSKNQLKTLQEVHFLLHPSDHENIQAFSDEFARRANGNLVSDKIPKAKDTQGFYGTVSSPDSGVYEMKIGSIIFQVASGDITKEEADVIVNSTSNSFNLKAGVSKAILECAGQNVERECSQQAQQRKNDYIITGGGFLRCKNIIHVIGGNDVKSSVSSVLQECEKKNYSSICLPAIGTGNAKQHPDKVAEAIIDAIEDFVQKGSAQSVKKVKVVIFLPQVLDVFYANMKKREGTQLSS

T2: MacroD1 (Homo sapiens, UniProt Q9BQ69)
T2 sequence (Q9BQ69 90-325): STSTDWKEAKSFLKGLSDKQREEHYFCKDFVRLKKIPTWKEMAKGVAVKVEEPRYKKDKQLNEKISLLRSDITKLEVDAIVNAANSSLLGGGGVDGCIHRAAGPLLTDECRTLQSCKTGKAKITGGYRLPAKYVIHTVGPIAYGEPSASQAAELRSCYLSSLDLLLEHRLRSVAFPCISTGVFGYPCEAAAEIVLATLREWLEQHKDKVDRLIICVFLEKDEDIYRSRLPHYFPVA

T3: TARG1 (Homo sapiens, UniProt Q9Y530)
T3 construct: "Uniprot: Q9Y530" res; His10 with TEV site (N, cleaved yes); made in house; host or cells: E. coli T7-express
T3 sequence (Q9Y530 3-152): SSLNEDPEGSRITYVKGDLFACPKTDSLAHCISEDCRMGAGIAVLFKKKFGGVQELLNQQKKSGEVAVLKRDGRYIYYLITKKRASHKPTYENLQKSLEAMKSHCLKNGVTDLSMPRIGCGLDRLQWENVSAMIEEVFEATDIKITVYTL

T4: MacroD2 (Homo sapiens, UniProt A1Z1Q3)
T4 sequence (A1Z1Q3 4-243): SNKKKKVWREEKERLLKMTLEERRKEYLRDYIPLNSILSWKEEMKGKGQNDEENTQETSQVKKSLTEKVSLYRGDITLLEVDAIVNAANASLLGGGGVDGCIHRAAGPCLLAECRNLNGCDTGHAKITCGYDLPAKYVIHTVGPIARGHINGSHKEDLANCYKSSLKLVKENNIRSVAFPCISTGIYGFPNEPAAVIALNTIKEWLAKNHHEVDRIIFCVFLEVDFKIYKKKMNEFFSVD

B1: MacroD2: recombinant human MacroD2, Uniprot A1Z1Q3 res. 4-243 (protein, UniProt A1Z1Q3 4-243, looked up, fragment)
chain: T4 sequence (A1Z1Q3 4-243)
B2: HCoV-229e: recombinant HCoV-229E macrodomain, Uniprot P0C6X1 res. E1270-1437 (protein, UniProt P0C6X1 1270-1437, looked up, fragment)
chain: EKLNAFLVHDNVAFYQGDVDTVVNGVDFDFIVNAANENLAHGGGLAKALDVYTKGKLQRLSKEHIGLAGKVKVGTGVMVECDSLRIFNVVGPRKGKHERDLLIKAYNTINNEQGTPLTPILSCGIFGIKLETSLEVLLDVCNTKEVKVFVYTDTEVCKVKDFVSGLVN
modifications: Non-structural protein 3 macrodomain
B3: MacroD1: recombinant human MacroD1, Uniprot Q9BQ69 res. 90-325 (protein, UniProt Q9BQ69 90-325, looked up, fragment)
chain: T2 sequence (Q9BQ69 90-325)
B4: TARG1: recombinant human TARG1, Uniprot Q9Y530 res. S3-152 (protein, UniProt Q9Y530 3-152, looked up, fragment)
chain: T3 sequence (Q9Y530 3-152)

Columns and labels:
[1] = target: HCoV-229e macrodomain (Human coronavirus 229E, UniProt P0C6X1); assay: DeMAR HTRF deMARylation assay, wash protocol; assay type: biochemical
[2] = target: T1, PARP14 Mac2/3; assay: biochemical; assay type: binding
[3] = target: T5, SARS-CoV-2 Mac1 (Severe acute respiratory syndrome coronavirus 2, UniProt P0DTD1); assay type: biochemical
[4] = target: T2, MacroD1; assay: biochemical
[5] = target: T2, MacroD1; set-up: method as in PMID 18983849; conditions: read-out: Kd for free ADPr, MacroD1; cited from earlier work
[6] = target: CHIKV macrodomain (Chikungunya virus, UniProt Q8JUX6, C1333S); assay type: biochemical, Chikungunya (CHIKV) alphavirus
[7] = target: T3, TARG1; assay type: biochemical; conditions: read-out: IC50 TARG1
[8] = target: T4, MacroD2; assay type: biochemical; conditions: read-out: IC50 MacroD2
[9] = target: T5, SARS-CoV-2 Mac1; assay: biochemical
[10] = test system: MARylated Tb-PARP10cat; assay type: biochemical, human
[11] = test system: MARylated Tb-PARP10cat; assay type: biochemical, human; remark: listed apart in the source
[12] = read-out: IC50 HCoV-229e, wash setup, 2 h, 80 nM macrodomain, 6 nM immobilized Tb-PARP10cat

Row | Molecule | IC50 [1, 12] | readout quenching in one-pot setup (PARP14 Mac2/3 off-target), in words [2] | EC80 One-pot (1 h) [10] | EC80 Wash (2 h) [11] | other results
1 | O=C(Nc1ccc(C(=O)NC2c3cccc(O)c3CC2C(=O)O)cc1)NC1CC1 (centres unmarked) [Z8539] | > 667 µM | does not show a strong quenching effect |  |  | 
2 | Oc1c(Cl)cc(Cl)c(Cl)c1Cc1c(O)c(Cl)cc(Cl)c1Cl [hexachlorophene] |  |  |  |  | inhibition of SARS-CoV-2 Mac1 in words [3]: limited efficacy
3 | Nc1ncnc2c1ncn2C1OC(COP(=O)(O)OP(=O)(O)OCC2OC(O)C(O)C2O)C(O)C1O (centres unmarked) [ADPr, Adenosine 5′-diphosphoribose sodium salt] |  |  |  |  | IC50 [1]: ~460 µM; IC50 [4]: 2 µM; IC50 [2]: 67 µM; Kd [5]: 0.9 µM
4 | N#C[C@@]1(c2ccc3c(N)ncnn23)O[C@H](CO)[C@@H](O)[C@H]1O [GS-441524] | > 667 µM | clear and concentration-dependent loss of signal |  |  | IC50 CHIKV [6]: slight activity; inhibition of SARS-CoV-2 Mac1 in words [3]: slightly inhibits
5 | O=C(Nc1ccccc1)Nc1ccc(C(=O)NC2c3cccc(O)c3CC2C(=O)O)cc1 (centres unmarked) [Z8539_0023] |  | pronounced readout quenching |  |  | IC50 [7]: > 667 µM; IC50 ([4]; read-out: IC50 MacroD1): > 667 µM; IC50 [8]: > 667 µM; IC50 [9]: 6 µM
6 | O=C(Nc1ccc(C(=O)NC2c3cccc(O)c3CC2C(=O)O)c(O)c1)NC1CC1 (centres unmarked) [Z8539_0072] | > 667 µM |  |  |  | IC50 [9]: 14 µM
7 | B1 |  |  | 0.003 µM | 0.002 µM | 
8 | B2 |  |  | 0.036 µM | 0.015 µM | 
9 | B3 |  |  | 0.004 µM | 0.003 µM | 
10 | B4 |  |  | ∼2256 nM | ∼ 830 nM | 
